In PMC6100082, “Pyridine-Ureas as Potential Anticancer Agents: Synthesis and In Vitro Biological Evaluation” (Molecules : A Journal of Synthetic Chemistry and Natural …, 2018):

Tests used:
Format in all cases: cell-based, human
SF-268 = test: NCI one-dose SRB assay (CNS Cancer)
Description: (§1) The structures of all the newly prepared pyridine-ureas 8a–n were submitted to the National Cancer Institute (NCI) Developmental Therapeutic Program. Eight compounds 8b, 8d, 8e, 8i, 8j and 8l–n were selected to be examined for their in vitro growth inhibitory activity. The anticancer assays were carried out according to the protocol of the Drug Evaluation Branch, NCI, Bethesda. The selected pyridine-ureas were tested at one dose primary anticancer assay against a panel of approximately 58 cancer lines (concentration 10^−5 M). The tested human cancer cell lines emerged from nine different cancer subtypes: leukemia, colon, melanoma, ovarian, lung, CNS, renal, breast and prostate cancers. The sulforhodamine B (SRB) protein assay was adopted to estimate the cell viability and growth. The results were reported as mean-graph of the percentage growth of the treated cells, and presented as percentage growth inhibition (GI%) caused by the test compounds (Table 2).
(§2) The anticancer assays were performed in accordance with the protocol of the Drug Evaluation Branch, NCI, Bethesda. A 48 h drug exposure protocol was used and sulforhodamine B (SRB) protein assay was applied to estimate the cell viability and growth, as reported earlier.

SF-295 = test: NCI one-dose SRB assay (CNS Cancer)
Description: as §1, §2

SF-539 = test: NCI one-dose SRB assay (CNS Cancer)
Description: as §1, §2

SNB-19 = test: NCI one-dose SRB assay (CNS Cancer)
Description: as §1, §2

SNB-75 = test: NCI one-dose SRB assay (CNS Cancer)
Description: as §1, §2

U251 = test: NCI one-dose SRB assay (CNS Cancer)
Description: as §1, §2

LOX IMVI = test: NCI one-dose SRB assay (Melanoma)
Description: as §1, §2

M14 = test: NCI one-dose SRB assay (Melanoma)
Description: as §1, §2

MALME-3M = test: NCI one-dose SRB assay (Melanoma)
Description: as §1, §2

MDA-MB-435 = test: NCI one-dose SRB assay (Melanoma)
Description: as §1, §2

SK-MEL-2 = test: NCI one-dose SRB assay (Melanoma)
Description: as §1, §2

SK-MEL-5 = test: NCI one-dose SRB assay (Melanoma)
Description: as §1, §2

UACC-62 = test: NCI one-dose SRB assay (Melanoma)
Description: as §1, §2

IGROV1 = test: NCI one-dose SRB assay (Ovarian Cancer)
Description: as §1, §2

NCI/ADR-RES = test: NCI one-dose SRB assay (Ovarian Cancer)
Description: as §1, §2

OVCAR-3 = test: NCI one-dose SRB assay (Ovarian Cancer)
Description: as §1, §2

OVCAR-4 = test: NCI one-dose SRB assay (Ovarian Cancer)
Description: as §1, §2

OVCAR-5 = test: NCI one-dose SRB assay (Ovarian Cancer)
Description: as §1, §2

OVCAR-8 = test: NCI one-dose SRB assay (Ovarian Cancer)
Description: as §1, §2

SK-OV-3 = test: NCI one-dose SRB assay (Ovarian Cancer)
Description: as §1, §2

BT-549 = test: NCI one-dose SRB assay (Breast Cancer)
Description: as §1, §2

HS 578T = test: NCI one-dose SRB assay (Breast Cancer)
Description: as §1, §2

MCF7 = test: NCI one-dose SRB assay (Breast Cancer)
Description: as §1, §2

MDA-MB-231 = test: NCI one-dose SRB assay (Breast Cancer)
Description: as §1, §2

MDA-MB-468 = test: NCI one-dose SRB assay (Breast Cancer)
Description: as §1, §2

T-47D = test: NCI one-dose SRB assay (Breast Cancer)
Description: as §1, §2

[1] = Homo sapiens, 10 μM, read-out: Percentage growth inhibition (GI%)

SMILES: COc1ccc(-c2ccc(NC(=O)Nc3ccc(Cl)cc3)c(C)n2)cc1 [Compound 8d, 1-(4-Chlorophenyl)-3-(6-(4-methoxyphenyl)-2-methylpyridin-3-yl) Urea]
- inhibition at 10 µM (SF-268; Homo sapiens, SF-268, 10 μM, read-out: Percentage growth inhibition (GI%)): < 10%
- Growth Percent (SF-268; SF-268, 1.00E-5 Molar): 96.43%
- inhibition at 10 µM (SF-295; Homo sapiens, SF-295, 10 μM, read-out: Percentage growth inhibition (GI%)): < 10%
- Growth Percent (SF-295; SF-295, 1.00E-5 Molar): 97.10%
- inhibition at 10 µM (SF-539; Homo sapiens, SF-539, 10 μM, read-out: Percentage growth inhibition (GI%)): 16%
- Growth Percent (SF-539; SF-539, 1.00E-5 Molar): 84.16%
- inhibition at 10 µM (SNB-19; Homo sapiens, SNB-19, 10 μM, read-out: Percentage growth inhibition (GI%)): < 10%
- Growth Percent (SNB-19; SNB-19, 1.00E-5 Molar): 94.20%
- inhibition at 10 µM (SNB-75; Homo sapiens, SNB-75, 10 μM, read-out: Percentage growth inhibition (GI%)): 16%
- Growth Percent (SNB-75; SNB-75, 1.00E-5 Molar): 84.87%
- inhibition at 10 µM (U251; Homo sapiens, U-251, U251, 10 μM, read-out: Percentage growth inhibition (GI%)): 24%
- Growth Percent (U251; U251, 1.00E-5 Molar): 76.51%
- Growth Percent (LOX IMVI; 1.00E-5 Molar): 85.30%
- inhibition at 10 µM (LOX IMVI; [1]): 15%
- inhibition at 10 µM (M14; Homo sapiens, M14, 10 μM, read-out: Percentage growth inhibition (GI%)): 14%
- Growth Percent (M14; M14, 1.00E-5 Molar): 86.55%
- Growth Percent (MALME-3M; 1.00E-5 Molar): 104.47%
- inhibition at 10 µM (MALME-3M; [1]): < 10%
- inhibition at 10 µM (MDA-MB-435; Homo sapiens, MDA-MB-435, 10 μM, read-out: Percentage growth inhibition (GI%)): 12%
- Growth Percent (MDA-MB-435; MDA-MB-435, 1.00E-5 Molar): 88.00%
- inhibition at 10 µM (SK-MEL-2; Homo sapiens, SK-MEL-2, 10 μM, read-out: Percentage growth inhibition (GI%)): < 10%
- Growth Percent (SK-MEL-2; SK-MEL-2, 1.00E-5 Molar): 104.03%
- inhibition at 10 µM (SK-MEL-5; Homo sapiens, SK-MEL-5, 10 μM, read-out: Percentage growth inhibition (GI%)): 13%
- Growth Percent (SK-MEL-5; SK-MEL-5, 1.00E-5 Molar): 87.05%
- inhibition at 10 µM (UACC-62; Homo sapiens, UACC-62, 10 μM, read-out: Percentage growth inhibition (GI%)): 29%
- Growth Percent (UACC-62; UACC-62, 1.00E-5 Molar): 71.19%
- inhibition at 10 µM (IGROV1; Homo sapiens, IGROV-1, IGROV1, 10 μM, read-out: Percentage growth inhibition (GI%)): 17%
- Growth Percent (IGROV1; IGROV1, 1.00E-5 Molar): 83.85%
- Growth Percent (NCI/ADR-RES; 1.00E-5 Molar): 92.03%
- inhibition at 10 µM (NCI/ADR-RES; [1]): < 10%
- inhibition at 10 µM (OVCAR-3; Homo sapiens, OVCAR-3, 10 μM, read-out: Percentage growth inhibition (GI%)): < 10%
- Growth Percent (OVCAR-3; OVCAR-3, 1.00E-5 Molar): 101.66%
- inhibition at 10 µM (OVCAR-4; Homo sapiens, OVCAR-4, 10 μM, read-out: Percentage growth inhibition (GI%)): 26%
- Growth Percent (OVCAR-4; OVCAR-4, 1.00E-5 Molar): 74.67%
- inhibition at 10 µM (OVCAR-5; Homo sapiens, OVCAR-5, 10 μM, read-out: Percentage growth inhibition (GI%)): < 10%
- Growth Percent (OVCAR-5; OVCAR-5, 1.00E-5 Molar): 93.01%
- inhibition at 10 µM (OVCAR-8; Homo sapiens, OVCAR-8, 10 μM, read-out: Percentage growth inhibition (GI%)): < 10%
- Growth Percent (OVCAR-8; OVCAR-8, 1.00E-5 Molar): 93.26%
- inhibition at 10 µM (SK-OV-3; Homo sapiens, SK-OV-3, 10 μM, read-out: Percentage growth inhibition (GI%)): 18%
- Growth Percent (SK-OV-3; SK-OV-3, 1.00E-5 Molar): 82.66%
- Growth Percent (BT-549; BT-549, 1.00E-5 Molar): 96.71%
- inhibition at 10 µM (BT-549; Homo sapiens, BT-549, 10 μM, read-out: Percentage growth inhibition (GI%)): < 10%
- Growth Percent (HS 578T; 1.00E-5 Molar): 98.36%
- inhibition at 10 µM (HS 578T; [1]): < 10%
- inhibition at 10 µM (MCF7; Homo sapiens, MCF7, 10 μM, read-out: Percentage growth inhibition (GI%)): 26%
- Growth Percent (MCF7; MCF7, 1.00E-5 Molar): 74.74%
- inhibition at 10 µM (MDA-MB-231; Homo sapiens, MDA-MB-231, 10 μM, read-out: Percentage growth inhibition (GI%)): < 10%
- Growth Percent (MDA-MB-231; MDA-MB-231/ATCC, 1.00E-5 Molar): 97.34%
- inhibition at 10 µM (MDA-MB-468; Homo sapiens, MDA-MB-468, 10 μM, read-out: Percentage growth inhibition (GI%)): < 10%
- Growth Percent (MDA-MB-468; MDA-MB-468, 1.00E-5 Molar): 91.54%
- Growth Percent (T-47D; 1.00E-5 Molar): 72.90%
- inhibition at 10 µM (T-47D; Homo sapiens, T47D, 10 μM, read-out: Percentage growth inhibition (GI%)): 28%
